The record followed here is the supplement of paper PMC10307832.

The first assay has as its system NCI-H2126. In words: relative viability (nuclei count vs DMSO), 5 days (fraction); higher = more cells survive. To be noted: first compound 2.53 µM. Put shortly:
(§1)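 Lung cancer cell lines in 1536-well plates got either a single drug or a fixed anchor-drug dose together with five library-drug doses (not always all listed) in √10 steps, by pin tool, on the day after seeding. Nuclei were counted after 5 days, and relative viability is the treated-to-vehicle ratio of nuclei counts. Values are medians of duplicate plates.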
`CCCCCCCCCCCC1=C(O)C(=O)C=C(O)C1=O` [Embelin] + N=C(N)NC(=N)NCCc1ccccc1 [Phenformin] (partner 250 µM) registered a relative viability of 0.591.
As to `CCCCCCCCCCCC1=C(O)C(=O)C=C(O)C1=O` [Embelin] + CCNC(=O)c1noc(-c2cc(C(C)C)c(O)cc2O)c1-c1ccc(CN2CCOCC2)cc1 [Luminespib] (partner 0.01 µM), the relative viability was 0.965.
On the same count and under the same terms, as for `CCCCCCCCCCCC1=C(O)C(=O)C=C(O)C1=O` [Embelin] + Cc1nc(Nc2ncc(C(=O)Nc3c(C)cccc3Cl)s2)cc(N2CCN(CCO)CC2)n1 [Dasatinib] (partner 0.075 µM), the figure is 0.714; as for `CCCCCCCCCCCC1=C(O)C(=O)C=C(O)C1=O` [Embelin] + COc1cccc2cc(-c3nc([C@H]4CC[C@H](C(=O)O)CC4)n4ncnc(N)c34)[nH]c12 [OSI-027] (partner 0.5 µM), 0.804; as for `CCCCCCCCCCCC1=C(O)C(=O)C=C(O)C1=O` [Embelin] + Nc1nc2[nH]cc(CCc3ccc(C(=O)N[C@@H](CCC(=O)O)C(=O)O)cc3)c2c(=O)[nH]1 [Pemetrexed] (partner 0.2 µM), 0.654.

Still in this assay, the particulars now being: first compound 8 µM.
`CCCCCCCCCCCC1=C(O)C(=O)C=C(O)C1=O` [Embelin] + N=C(N)NC(=N)NCCc1ccccc1 [Phenformin] (partner 250 µM): the relative viability was found to be 0.476.
Still for that read-out and setting: for `CCCCCCCCCCCC1=C(O)C(=O)C=C(O)C1=O` [Embelin] + CCNC(=O)c1noc(-c2cc(C(C)C)c(O)cc2O)c1-c1ccc(CN2CCOCC2)cc1 [Luminespib] (partner 0.01 µM) the value was 0.927.
For the compound `CCCCCCCCCCCC1=C(O)C(=O)C=C(O)C1=O` [Embelin] + Cc1nc(Nc2ncc(C(=O)Nc3c(C)cccc3Cl)s2)cc(N2CCN(CCO)CC2)n1 [Dasatinib] (partner 0.075 µM), the relative viability was found to be 0.502.
Still for that read-out and setting: for `CCCCCCCCCCCC1=C(O)C(=O)C=C(O)C1=O` [Embelin] + COc1cccc2cc(-c3nc([C@H]4CC[C@H](C(=O)O)CC4)n4ncnc(N)c34)[nH]c12 [OSI-027] (partner 0.5 µM) the value was 0.795; for `CCCCCCCCCCCC1=C(O)C(=O)C=C(O)C1=O` [Embelin] + Nc1nc2[nH]cc(CCc3ccc(C(=O)N[C@@H](CCC(=O)O)C(=O)O)cc3)c2c(=O)[nH]1 [Pemetrexed] (partner 0.2 µM), 0.69.

For the next assay, the system named is NCI-H2170. The description is as above. Conditions: first compound 0.08 µM. Put shortly:
as §1
Regarding `CCCCCCCCCCCC1=C(O)C(=O)C=C(O)C1=O` [Embelin] + N=C(N)NC(=N)NCCc1ccccc1 [Phenformin] (partner 250 µM), the relative viability was determined as 0.438.
Still for that read-out and setting: as for `CCCCCCCCCCCC1=C(O)C(=O)C=C(O)C1=O` [Embelin] + CCNC(=O)c1noc(-c2cc(C(C)C)c(O)cc2O)c1-c1ccc(CN2CCOCC2)cc1 [Luminespib] (partner 0.01 µM), the figure is 0.701.
`CCCCCCCCCCCC1=C(O)C(=O)C=C(O)C1=O` [Embelin] + Cc1nc(Nc2ncc(C(=O)Nc3c(C)cccc3Cl)s2)cc(N2CCN(CCO)CC2)n1 [Dasatinib] (partner 0.075 µM) showed a relative viability of 0.649.
On the same count and under the same terms, for `CCCCCCCCCCCC1=C(O)C(=O)C=C(O)C1=O` [Embelin] + COc1cccc2cc(-c3nc([C@H]4CC[C@H](C(=O)O)CC4)n4ncnc(N)c34)[nH]c12 [OSI-027] (partner 0.5 µM) the value was 0.796; for `CCCCCCCCCCCC1=C(O)C(=O)C=C(O)C1=O` [Embelin] + Nc1nc2[nH]cc(CCc3ccc(C(=O)N[C@@H](CCC(=O)O)C(=O)O)cc3)c2c(=O)[nH]1 [Pemetrexed] (partner 0.2 µM), 0.264.

The same assay, now with this note: first compound 0.8 µM.
In turn, `CCCCCCCCCCCC1=C(O)C(=O)C=C(O)C1=O` [Embelin] + N=C(N)NC(=N)NCCc1ccccc1 [Phenformin] (partner 250 µM) had a relative viability of 0.489.
On the same count and under the same terms, for `CCCCCCCCCCCC1=C(O)C(=O)C=C(O)C1=O` [Embelin] + CCNC(=O)c1noc(-c2cc(C(C)C)c(O)cc2O)c1-c1ccc(CN2CCOCC2)cc1 [Luminespib] (partner 0.01 µM) the value was 0.753.
Still for that read-out and setting: for `CCCCCCCCCCCC1=C(O)C(=O)C=C(O)C1=O` [Embelin] + Cc1nc(Nc2ncc(C(=O)Nc3c(C)cccc3Cl)s2)cc(N2CCN(CCO)CC2)n1 [Dasatinib] (partner 0.075 µM) the value was 0.806; for `CCCCCCCCCCCC1=C(O)C(=O)C=C(O)C1=O` [Embelin] + COc1cccc2cc(-c3nc([C@H]4CC[C@H](C(=O)O)CC4)n4ncnc(N)c34)[nH]c12 [OSI-027] (partner 0.5 µM), 0.733.
Still for that read-out and setting: as for `CCCCCCCCCCCC1=C(O)C(=O)C=C(O)C1=O` [Embelin] + Nc1nc2[nH]cc(CCc3ccc(C(=O)N[C@@H](CCC(=O)O)C(=O)O)cc3)c2c(=O)[nH]1 [Pemetrexed] (partner 0.2 µM), the figure is 0.252.

Staying with this assay, now noted: first compound 2.53 µM.
In turn, `CCCCCCCCCCCC1=C(O)C(=O)C=C(O)C1=O` [Embelin] + N=C(N)NC(=N)NCCc1ccccc1 [Phenformin] (partner 250 µM) gave a relative viability of 0.427.
Same read-out and setting: as for `CCCCCCCCCCCC1=C(O)C(=O)C=C(O)C1=O` [Embelin] + CCNC(=O)c1noc(-c2cc(C(C)C)c(O)cc2O)c1-c1ccc(CN2CCOCC2)cc1 [Luminespib] (partner 0.01 µM), the figure is 0.397; as for `CCCCCCCCCCCC1=C(O)C(=O)C=C(O)C1=O` [Embelin] + Cc1nc(Nc2ncc(C(=O)Nc3c(C)cccc3Cl)s2)cc(N2CCN(CCO)CC2)n1 [Dasatinib] (partner 0.075 µM), 0.694.
`CCCCCCCCCCCC1=C(O)C(=O)C=C(O)C1=O` [Embelin] + COc1cccc2cc(-c3nc([C@H]4CC[C@H](C(=O)O)CC4)n4ncnc(N)c34)[nH]c12 [OSI-027] (partner 0.5 µM) returned a relative viability of 0.753.
The same measure, in the same setting: as for `CCCCCCCCCCCC1=C(O)C(=O)C=C(O)C1=O` [Embelin] + Nc1nc2[nH]cc(CCc3ccc(C(=O)N[C@@H](CCC(=O)O)C(=O)O)cc3)c2c(=O)[nH]1 [Pemetrexed] (partner 0.2 µM), the figure is 0.276.

The assay is the same for the next values; noted with them: first compound 8 µM.
The compound `CCCCCCCCCCCC1=C(O)C(=O)C=C(O)C1=O` [Embelin] + N=C(N)NC(=N)NCCc1ccccc1 [Phenformin] (partner 250 µM) showed a relative viability of 0.444.
Still for that read-out and setting: as for `CCCCCCCCCCCC1=C(O)C(=O)C=C(O)C1=O` [Embelin] + CCNC(=O)c1noc(-c2cc(C(C)C)c(O)cc2O)c1-c1ccc(CN2CCOCC2)cc1 [Luminespib] (partner 0.01 µM), the figure is 0.589; as for `CCCCCCCCCCCC1=C(O)C(=O)C=C(O)C1=O` [Embelin] + Cc1nc(Nc2ncc(C(=O)Nc3c(C)cccc3Cl)s2)cc(N2CCN(CCO)CC2)n1 [Dasatinib] (partner 0.075 µM), 0.533; as for `CCCCCCCCCCCC1=C(O)C(=O)C=C(O)C1=O` [Embelin] + COc1cccc2cc(-c3nc([C@H]4CC[C@H](C(=O)O)CC4)n4ncnc(N)c34)[nH]c12 [OSI-027] (partner 0.5 µM), 0.737.
Same read-out and setting: for `CCCCCCCCCCCC1=C(O)C(=O)C=C(O)C1=O` [Embelin] + Nc1nc2[nH]cc(CCc3ccc(C(=O)N[C@@H](CCC(=O)O)C(=O)O)cc3)c2c(=O)[nH]1 [Pemetrexed] (partner 0.2 µM) the value was 0.274.
